Laboratory results taken from patent publication US12416052B2, “Capturing, concentrating, and detecting microbes in a sample using magnetic ionic liquids and recombinase polymerase amplification” (priority 2019, dated 2025).

Assays:
Salmonella typhimurium [1] = conditions: thermal (120° C.-150° C.) disintegration; cited from earlier work
E. coli = conditions: thermal (120° C.-150° C.) disintegration; cited from earlier work
[2] = tested on: S. typhimurium ATCC 14028; assay: Exposure of cells and plating on non-selective (TSA) and selective (BSA) agar (viability, injury, toxicity); type: cell-based, Salmonella enterica
Procedure: To examine whether exposure time to the Ni(II) MIL affected cell viability, MIL-based whole-cell extraction was performed using the Ni(II) MIL, and cell-enriched back-extraction media were enumerated at 0, 5, 10 and 15 min on both TSA and BSA. To evaluate toxicity of the [EMIM^+][SCN^−] IL, one milliliter of diluted S. typhimurium ATCC 14028 cell suspension was added to a 4-mL screw cap glass vial. A 5% (vol/vol) or 50% (vol/vol) aqueous solution of 1-ethyl-3-methylimidazolium thiocyanate (“[EMIM^+][SCN^−]”) (IoLiTec, Tuscaloosa, AL, USA) was added and mixed by vortexing for 30 s. Aliquots were enumerated at 0, 5, 10 and 15 min using TSA and BSA.
One milliliter of diluted S. typhimurium ATCC 14028 cell suspension was added to a 4-mL screw cap glass vial. Fifteen microliters of either the Dy(III) MIL or 2-10 μL of 100 mM DyCh solution or 10 mg of the ammonium tetra(hexafluoroaceto)dysprosium salt (15) ([NH4^+][Dy(hfacac)4^−]) (“Dy(III) ammonium salt”) was added and dispersed by vortex agitation for 30 s. Aliquots of the Dy(III) MIL- or Dy(III) ammonium salt-exposed cell suspension were enumerated using square TSA or BSA plates (BD).
Because culture-based methods depend on sample preparation steps that preserve bacterial viability, potential deleterious cytotoxic effects imparted by MIL extractants must be considered. To begin our further study of MIL-bacterial interactions, we selected S. typhimurium ATCC 14028 as a model gram-negative pathogen and the Ni(II) MIL as extractant. Briefly, a 1 mL aliquot of TSB was inoculated with 1×10^5 CFU mL^−1 of bacteria and spiked with 15 μL of the Ni(II) MIL, and the general schematic for MIL-based extraction and recovery followed as shown in FIG. 7B. After extraction, 10 μL aliquots of the back-extraction solution were enumerated at 0, 5, 10 and 15 min using TSA and BSA. Average CFU counts were compared to a standard that was not exposed to the Ni(II) MIL. […] To better understand the data in FIG. 8, statistical analyses of Ni(II) MIL capture precision and CFU count variation as a function of MIL exposure time were performed. Variation in MIL capture may stem from inherent randomness of MIL dispersion and coalescence behaviors.
The effects of 5% or 50% (vol/vol) aqueous solutions of the [EMIM^+][SCN^−] IL on the viability of the cells were also evaluated. Average CFU counts were compared to a standard not exposed to [EMIM^+][SCN^−]. In our hands, when S. typhimurium was exposed to 50% (vol/vol) solutions of [EMIM^+][SCN^−], no recovery was observed on either TSA or BSA after 5 min of exposure.
To gain further insight into this phenomenon, the effect of free elemental dysprosium was evaluated by subjecting the cells to 0.1 mM and 1.0 mM solutions of DyCl3. The cells were exposed to the metal salt solutions for 30 s and subsequently plated on selective and non-selective media.
While the metal did show cytotoxicity, it cannot be completely responsible for the Dy(III) MIL's effect on the cells, as no flocculation was seen and growth was still observed. Since both the Ni(II) and the Dy(III) MILs contain identical cations ([P6,6,6,14^+]), the role of the anion structure was evaluated. The anion of the Dy(III) MIL contains one additional hexafluoroacetylacetonate ligand than the Ni(II) MIL (FIG. 7), making the coordination geometry of the two complexes different. To test the effects of the anion structure, cells were subjected to 10 mg of the Dy(III) ammonium salt. After a 30 second vortex, similar flocculation was observed as when the cells were exposed to the native Dy(III) MIL.

Salmonella typhimurium [3] = conditions: plated to a selective agar; cited from earlier work
[4] = tested on: Salmonella enterica subsp. enterica ser. Typhimurium ATCC 14028; type: cell-based; conditions: Example 2; 2×T, 1×NaCl back-extraction medium
Procedure: A universal schematic for MIL-based cell extraction is depicted in FIG. 7B. A 1 mL volume of diluted cell suspension was added to a flat-bottomed 4-mL screw cap glass vial. Fifteen microliters of either the Ni(II) or Dy(III) MIL was added and dispersed into microdroplets by vortex agitation for 30 s. The aqueous phase was decanted following dispersive extraction, and the MIL was subjected to a brief wash step using 1 mL of nuclease-free water (Integrated DNA Technologies, Coralville, IA, USA) to ensure adequate removal of loosely or incidentally bound cells. After washing, release of viable cells from the MIL extraction phase was carried out using a “back-extraction” step accomplished through addition of 1 mL of an ionically-rich nutritive medium comprised of 20 g L^−1 tryptone and 10 g L^−1 NaCl, followed by a 120 s vortex step. After back-extraction, aliquots of the cell-enriched back-extraction medium were enumerated using the track dilution method using 100×100 mm square, gridded TSA, BSA, CA or VRBGA plates.
Following back-extraction, aliquots of the cell-enriched back-extraction medium were serially diluted in 0.1% peptone water and a 10 μL aliquot of each dilution was applied to a separate lane on square plates containing an appropriate agar medium. The plates were then tilted at an approximately 80° angle for 15 min to allow the droplets to travel toward the opposite end of the plate. The plates were incubated for 24 h at 37° C. (TSA, VRBGA), for 48 h at 37° C. (BSA) or for 24 h at 37° C. (CA). Colonies were counted and colony forming units (CFU) were determined. The enrichment factor (EF) for MIL-based extraction was calculated using Equation 1, where CMIL represents the concentration of bacteria in suspension following extraction using the MIL and CS is the initial concentration of bacteria in the sample.
Because culture-based methods depend on sample preparation steps that preserve bacterial viability, potential deleterious cytotoxic effects imparted by MIL extractants must be considered. To begin our further study of MIL-bacterial interactions, we selected S. typhimurium ATCC 14028 as a model gram-negative pathogen and the Ni(II) MIL as extractant.

Density of MIL = type: physicochemical

1-butyl-1-methylpyrrolidinium bis(trifluoromethylsulfonyl)imide [[BMPyr^+][Ntf2^−]]
cell disruption (Salmonella typhimurium [1]): completely disrupted
cell disruption (E. coli): completely disrupted

O=C([CH-]C(=O)C(F)(F)F)C(F)(F)F.O=C([CH-]C(=O)C(F)(F)F)C(F)(F)F.O=C([CH-]C(=O)C(F)(F)F)C(F)(F)F.O=C([CH-]C(=O)C(F)(F)F)C(F)(F)F.[Dy+3].[NH4+] [Dy(III) ammonium salt, ammonium tetra(hexafluoroaceto)dysprosium salt, reference compound]
growth on TSA or BSA ([2]; 10 mg, 30 second vortex, 24 h incubation): no growth was seen on either TSA or BSA

[Cl][Dy]([Cl])[Cl] [DyCl3, reference compound]
viable counts on TSA and BSA ([2]; 0.1 mM and 1.0 mM solutions, 30 s exposure): substantially lower counts were observed on BSA than TSA

CCCCCCCCCCCCCC[P+](CCCCCC)(CCCCCC)CCCCCC.O=C([CH-]C(=O)C(F)(F)F)C(F)(F)F.O=C([CH-]C(=O)C(F)(F)F)C(F)(F)F.O=C([CH-]C(=O)C(F)(F)F)C(F)(F)F.O=C([CH-]C(=O)C(F)(F)F)C(F)(F)F.[Dy+3] [Dy(III) MIL, [P6,6,6,14^+][Dy(III) (hfacac)4^−]]
flocculation and growth after plating ([2]; 15 μL added to cell suspension, 30 s vortex): extensive flocculation and no growth after plating

CCn1cc[n+](C)c1.N#C[S-] [[EMIM^+][SCN^−], 1-ethyl-3-methylimidazolium thiocyanate, reference compound]
recovery on TSA or BSA ([2]; 50% (vol/vol) solution, after 5 min of exposure): no recovery
recovery on TSA or BSA ([2]; exposed as originally described for IL-based extraction from foods (Mester et al., 2010)): no recovery
inoculated S. typhimurium recovered after IL-mediated matrix lysis (Salmonella typhimurium [3]): 34-45%

CCCCCCCCCCCCCC[P+](CCCCCC)(CCCCCC)CCCCCC.O=C([CH-]C(=O)C(F)(F)F)C(F)(F)F.O=C([CH-]C(=O)C(F)(F)F)C(F)(F)F.O=C([CH-]C(=O)C(F)(F)F)C(F)(F)F.[Co+2] [Co(II) MIL]
enrichment factors [4]: approximately 12
density (Density of MIL): ~1.3 g/mL
